Key:
ATM(h) = ATM(h) (Homo sapiens (Human), UniProt Q13315); assay: ATM activity, […] KINASEPROFILER; assay type: biochemical; conditions: estimated IC50
Source text: Estimated IC50 values are as follows (obtained using […] KINASEPROFILER): […]

ATR/ATRIP(h) = ATR/ATRIP(h) (Homo sapiens (Human), UniProt Q13535); assay: Eurofins ATR/ATRIP HTRF assay, p53 Ser15 phosphorylation; assay type: biochemical; parameters: key to Top / Bottom: % of DMSO positive control activity; conditions: ATP 10 μM
Method: An EC50 determination was conducted for the supplied set of compounds against the kinase ATR/ATRIP(h), using a linear enzyme concentration in the Eurofins ATR/ATRIP HTRF assay using GST tagged full length p53 as the substrate.
ATR/ATRIP phosphorylation of p53 on Ser15 was measured via formation of an energy transfer complex consisting of a Europium-labelled anti-phospho Ser15 p53 antibody and an anti-GST-d2 antibody. All data points were performed in duplicate with DMSO controls and EDTA blanks.
ATR/ATRIP(h) was pre-diluted in 25 mM HEPES pH 8.0, 0.01% Brij-35, 1% Glycerol, 5 mM DTT, 1 mg/mL BSA and assayed in 25 mM HEPES pH 8.0, 0.01% Brij-35, 1% Glycerol, 10 mM MnCl2 using 30 nM GST, cMyc p53-(hu,FL) as the substrate. The reaction was initiated with the addition of ATP to a final concentration of 10 μM.
The individual replicates were expressed in terms of the % of the DMSO positive control activity. The mean activity (% control) of each inhibitor concentration was plotted against the inhibitor concentration, and EC50 values were determined using […] PRISM.
The data expressed as % control activity were plotted against inhibitor concentration, and fitted to a four parameter logistic using […] PRISM. Graphs for each compound are shown alongside the data in the accompanying Excel report.

U2OS cells = assay: Cell death and growth assay, U2OS cells; assay type: cell-based; conditions: set concentrations, in combination with Gemcitabine
Method: U20S and all other cells were grown in (RPMI) supplemented with 10% fetal bovine serum (FBS) and antibiotics. Imaging and time-lapse compatible NucLight red cell lines were generated as recommend by Essen Bioscience Inc. using lentiviral particles, infection and puromycin selection protocols.
The results were compared back to a prediction of cell growth and death with the combination of the two compounds (FIG. 18A).
(§1) In all cases, relative cell proliferation is reduced with the combinations compared to the drugs alone (FIG. 21B-C).

[1] = test system: total and phospho-ATR (S428), phospho-CHK1 (S317 and S345) in DMS-114 cells; assay: Western blot of total and phospho-ATR, phospho-CHK1 in DMS-114 cells; assay type: cell-based
Method: Whole cell protein lysates were generated after 1, 3, 6 and 24 hours using a 2% SDS containing cell lysis buffer and stored at −80° C. until all samples were collected and run together at the same time for the WesternBlot analysis. The following proteins and phosphoproteins of interest were detected by antibodies purchased from Cell Signaling Technology (see methods and materials part below): total and phospho-ATR (S428), phospho-CHK1 (S317 and S345), γH2AX, beta-actin.
All target and phospho-specific antibodies were purchased from Cell Signaling and/or Epitomics and were used at 1:1000 dilutions. A list of all antibodies is available in Table 6. Standard antibody based Western blot and immunohistochemistry protocols were used. Briefly, 2% SDS based cell lysis buffer was used to collect whole cell lysate for Western Blotting. Secondary antibodies and staining protocols were purchased and followed regarding LiCor Biosciences and/or BD Bioscience.
Cells were grown and treated in a 6 cm dish scale. To harvest cells, medium was removed and quickly replaced by ice cold PBS. PBS was then replaced with 250 μL of 2% SDS lysis buffer. After five minutes of incubation, the lysed cells were scraped off and loaded onto a cell lysate homogenizer microcentrifuge spin-column (QIAshredder, Qiagen, Cat.-Nr. 79656). The filtrate was then loaded onto a 0.2 μm centrifugal filter column (Nanosep MF 0.2_m, Pall, Cat.-Nr. ODM02C34). The lysates were then stored at −80° C.

H358 cells = assay: Cell death and growth assay, H358 cells; assay type: cell-based; conditions: set concentrations, in combination with Gemcitabine
Source text: as §1

pKa = assay type: physicochemical; conditions: method not stated
[2] = four parameter logistic fit of % control activity

Sequence of ATR/ATRIP(h) (Q13535 whole entry): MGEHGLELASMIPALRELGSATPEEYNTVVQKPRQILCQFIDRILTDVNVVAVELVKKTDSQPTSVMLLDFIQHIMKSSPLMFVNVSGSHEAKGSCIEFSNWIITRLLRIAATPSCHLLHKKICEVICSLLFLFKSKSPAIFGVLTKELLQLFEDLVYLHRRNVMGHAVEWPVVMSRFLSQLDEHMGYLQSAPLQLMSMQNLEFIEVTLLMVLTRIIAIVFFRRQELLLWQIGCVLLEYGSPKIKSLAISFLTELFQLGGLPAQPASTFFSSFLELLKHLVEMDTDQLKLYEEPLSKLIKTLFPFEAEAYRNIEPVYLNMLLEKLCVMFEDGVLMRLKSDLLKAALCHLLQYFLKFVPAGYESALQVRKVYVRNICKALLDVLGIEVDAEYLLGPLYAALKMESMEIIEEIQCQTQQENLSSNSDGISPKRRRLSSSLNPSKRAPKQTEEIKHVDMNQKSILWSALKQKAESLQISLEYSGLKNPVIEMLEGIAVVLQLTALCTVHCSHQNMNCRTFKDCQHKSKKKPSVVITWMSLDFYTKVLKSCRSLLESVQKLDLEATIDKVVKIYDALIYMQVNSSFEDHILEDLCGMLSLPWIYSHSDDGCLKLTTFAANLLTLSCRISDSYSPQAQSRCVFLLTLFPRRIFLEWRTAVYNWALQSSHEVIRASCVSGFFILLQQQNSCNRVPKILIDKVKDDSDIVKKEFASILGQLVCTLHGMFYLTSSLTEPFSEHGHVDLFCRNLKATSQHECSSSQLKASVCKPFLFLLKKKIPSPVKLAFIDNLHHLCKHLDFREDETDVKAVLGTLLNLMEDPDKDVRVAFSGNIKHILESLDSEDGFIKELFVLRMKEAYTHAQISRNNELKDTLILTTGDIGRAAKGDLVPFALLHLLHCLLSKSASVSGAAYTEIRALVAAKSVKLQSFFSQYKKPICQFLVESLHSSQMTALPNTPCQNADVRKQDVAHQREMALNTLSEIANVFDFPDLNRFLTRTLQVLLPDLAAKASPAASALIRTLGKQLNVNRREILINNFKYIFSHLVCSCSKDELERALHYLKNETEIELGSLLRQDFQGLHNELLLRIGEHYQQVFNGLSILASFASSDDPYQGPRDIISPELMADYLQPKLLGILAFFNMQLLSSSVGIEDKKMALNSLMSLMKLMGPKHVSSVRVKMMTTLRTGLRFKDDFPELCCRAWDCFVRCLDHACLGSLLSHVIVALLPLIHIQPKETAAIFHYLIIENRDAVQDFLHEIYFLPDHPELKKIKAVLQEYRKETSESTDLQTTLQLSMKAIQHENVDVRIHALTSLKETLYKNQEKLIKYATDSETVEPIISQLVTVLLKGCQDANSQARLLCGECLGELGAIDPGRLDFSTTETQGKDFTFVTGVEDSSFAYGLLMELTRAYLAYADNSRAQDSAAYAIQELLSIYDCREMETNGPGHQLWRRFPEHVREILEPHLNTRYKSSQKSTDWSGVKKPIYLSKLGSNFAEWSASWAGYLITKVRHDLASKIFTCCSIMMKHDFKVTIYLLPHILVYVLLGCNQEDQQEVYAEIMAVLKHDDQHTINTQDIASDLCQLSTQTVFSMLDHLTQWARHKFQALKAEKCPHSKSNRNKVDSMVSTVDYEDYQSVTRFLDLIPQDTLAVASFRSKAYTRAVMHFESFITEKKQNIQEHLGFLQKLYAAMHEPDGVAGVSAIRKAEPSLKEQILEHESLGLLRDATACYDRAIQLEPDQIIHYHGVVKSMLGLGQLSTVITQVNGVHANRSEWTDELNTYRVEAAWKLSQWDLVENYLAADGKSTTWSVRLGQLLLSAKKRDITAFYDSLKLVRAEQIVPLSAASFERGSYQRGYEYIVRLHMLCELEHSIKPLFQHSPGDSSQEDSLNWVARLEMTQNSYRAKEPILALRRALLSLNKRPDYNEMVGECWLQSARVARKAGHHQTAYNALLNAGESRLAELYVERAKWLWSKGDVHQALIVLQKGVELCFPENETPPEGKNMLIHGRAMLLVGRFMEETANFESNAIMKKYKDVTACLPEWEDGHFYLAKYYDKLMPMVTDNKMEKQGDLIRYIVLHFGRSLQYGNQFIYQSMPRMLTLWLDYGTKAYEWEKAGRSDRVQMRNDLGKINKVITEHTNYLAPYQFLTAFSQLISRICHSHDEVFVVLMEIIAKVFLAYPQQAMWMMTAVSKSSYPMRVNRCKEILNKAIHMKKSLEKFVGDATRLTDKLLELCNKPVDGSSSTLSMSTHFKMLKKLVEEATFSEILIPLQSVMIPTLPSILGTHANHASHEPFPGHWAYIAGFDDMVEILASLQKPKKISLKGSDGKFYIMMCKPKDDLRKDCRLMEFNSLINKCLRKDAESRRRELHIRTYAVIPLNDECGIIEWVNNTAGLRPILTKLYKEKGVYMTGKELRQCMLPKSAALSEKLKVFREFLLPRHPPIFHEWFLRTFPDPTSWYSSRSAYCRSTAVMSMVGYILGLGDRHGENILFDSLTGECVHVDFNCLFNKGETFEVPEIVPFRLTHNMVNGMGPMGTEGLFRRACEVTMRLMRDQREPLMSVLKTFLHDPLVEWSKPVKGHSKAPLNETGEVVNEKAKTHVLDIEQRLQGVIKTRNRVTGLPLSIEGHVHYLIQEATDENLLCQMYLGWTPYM
Sequence of ATR/ATRIP(h) (Q8WXE1 whole entry partner): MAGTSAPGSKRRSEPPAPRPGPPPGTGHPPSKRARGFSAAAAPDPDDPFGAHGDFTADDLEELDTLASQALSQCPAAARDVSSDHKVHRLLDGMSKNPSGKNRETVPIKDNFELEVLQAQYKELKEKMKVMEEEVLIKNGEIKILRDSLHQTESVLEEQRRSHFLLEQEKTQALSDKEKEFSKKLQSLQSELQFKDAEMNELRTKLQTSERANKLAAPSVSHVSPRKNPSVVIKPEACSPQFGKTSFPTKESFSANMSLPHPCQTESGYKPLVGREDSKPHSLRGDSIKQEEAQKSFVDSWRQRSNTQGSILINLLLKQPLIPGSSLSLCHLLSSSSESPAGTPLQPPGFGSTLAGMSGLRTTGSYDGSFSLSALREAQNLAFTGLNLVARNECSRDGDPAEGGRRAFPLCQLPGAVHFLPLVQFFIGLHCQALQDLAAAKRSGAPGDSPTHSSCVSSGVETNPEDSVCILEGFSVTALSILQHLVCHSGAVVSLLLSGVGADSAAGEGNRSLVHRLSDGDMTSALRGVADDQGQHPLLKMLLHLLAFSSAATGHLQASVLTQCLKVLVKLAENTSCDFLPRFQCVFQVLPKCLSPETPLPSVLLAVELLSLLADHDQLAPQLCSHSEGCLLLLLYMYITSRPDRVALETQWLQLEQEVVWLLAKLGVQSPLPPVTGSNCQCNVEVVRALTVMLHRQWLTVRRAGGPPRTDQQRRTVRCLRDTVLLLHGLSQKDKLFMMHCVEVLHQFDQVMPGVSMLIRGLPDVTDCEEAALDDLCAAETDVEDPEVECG

CN(C)CCC1CCN(CCS(=O)(=O)c2ccc(-c3cnc(N)c(C(=O)Nc4ccccc4)n3)cc2)CC1 [Compound 5, 3-amino-6-(4-((2-(4-(2-(dimethylamino)ethyl)piperidin-1-yl)ethyl)sulfonyl)phenyl)-N-phenylpyrazine-2-carboxamide]
IC50 (ATM(h)): > 10000 nM | EC50 (ATR/ATRIP(h)): 234 nM | Hill (ATR/ATRIP(h); four parameter logistic fit): −0.819 | Bottom (ATR/ATRIP(h); [2]): 1 | Top (ATR/ATRIP(h); [2]): 95 | relative cell proliferation vs the drugs alone (U2OS cells): reduced | phosphorylation signal of CHK1 (S317 and S345) induced by Gemcitabine ([1]; ATR inhibitor 1 μM added to Gemcitabine 16 nM): abrogates the phosphorylation signal of CHK1 | total and phospho-ATR signal ([1]; ATR inhibitor 1 μM, alone or with Gemcitabine 16 nM, up to 24 hrs): strongly reduced | relative cell proliferation vs the drugs alone (H358 cells): reduced | pKa (pKa): 10
